Assay results reported in article PMC10304880, “Novel Tryptanthrin Derivatives with Selectivity as c–Jun N–Terminal Kinase (JNK) 3 Inhibitors” (Molecules, 2023).

Assays:
JNK2 = biological target: T1, JNK2 (Homo sapiens, UniProt P45984); test: KINOMEscan JNK2 binding (Kd); settings: 12-point series, max 33 μM, duplicate
T1 construct: purchased Eurofins Pharma Discovery (KINOMEscan service)
Description: (§1) All compounds were evaluated for their ability to bind to JNK1-3 using the KINOMEscan platform.
(§2) Compounds were submitted for dissociation constant (Kd) determination using KINOMEscan (Eurofins Pharma Discovery, San Diego, CA, USA), as described previously. […] Primary screening at fixed concentrations of compounds was performed in duplicate. To determine dissociation constant Kd, a 12-point half-log dilution series (a maximum concentration of 33 μM) was used.

JNK1 = biological target: T2, JNK1 (Homo sapiens, UniProt P45983); test: KINOMEscan JNK1 binding (Kd); settings: 12-point series, max 33 μM, duplicate
T2 construct: purchased Eurofins Pharma Discovery (KINOMEscan service)
Description: as §1, §2

[1] = CellTiter-Glo cytotoxicity in THP-1Blue cells; format: cell-based; settings: human, 24 h incubation
Description: (§3) Prior to evaluation of the compounds in cell-based assays, we measured their cytotoxicity in human monocytic THP-1Blue and MonoMac-6 cells during a 24 h incubation. […] Thus, these compounds were all excluded from subsequent testing in these cell lines.
(§4) Cytotoxicity was analyzed with a CellTiter-Glo Luminescent Cell Viability Assay Kit from Promega (Madison, WI, USA), according to the manufacturer’s protocol. Cells were treated with the compound under investigation and cultivated for 24 h. After treatment, the cells were allowed to equilibrate to room temperature for 30 min, substrate was added, and the luminescence measured using a Fluoroscan Ascent FL (Thermo Fisher Scientific, Waltham, MA, USA). The cell IC50 values were calculated by plotting the percentage inhibition against the logarithm of inhibitor concentration (at least five points).

[2] = CellTiter-Glo cytotoxicity in MonoMac-6 cells; format: cell-based; settings: human, 24 h incubation
Description: as §3, §4

JNK3 = biological target: T3, JNK3 (Homo sapiens, UniProt P53779); test: KINOMEscan JNK3 binding (Kd); settings: for Kd: KINOMEscan, 12-point series, max 33 μM, duplicate; for Selectivity Index JNK1/JNK3 / Selectivity Index JNK2/JNK3: ratio of Kd values
T3 construct: purchased Eurofins Pharma Discovery (KINOMEscan service)
Description: as §1, §2

[3] = system: IL-6 production in MonoMac-6 cells; test: LPS-induced IL-6 production in MonoMac-6 cells (ELISA); format: cell-based, human; settings: 250 ng/mL LPS, 24 h
Description: All cells were cultured at 37 °C in a humidified atmosphere containing 5% CO2. Human THP-1Blue monocytic cells obtained from InvivoGen (San Diego, CA, USA) were cultured in RPMI 1640 medium (Mediatech Inc., Herndon, VA, USA) supplemented with 10% (v/v) fetal bovine serum (FBS), 4.5 g/L glucose, 100 μg/mL streptomycin, 100 U/mL penicillin, 100 μg/mL phleomycin (Zeocin), and 10 μg/mL blasticidin S. Human monocyte-macrophage MonoMac-6 cells (Deutsche Sammlung von Mikroorganismen und Zellkulturen GmbH, Braunschweig, Germany) were grown in RPMI 1640 medium supplemented with 10% (v/v) FBS, 10 μg/mL bovine insulin, 100 μg/mL streptomycin, and 100 U/mL penicillin.
(§5) Panel (A) THP-1Blue cells were pretreated with the indicated compounds or DMSO for 30 min, followed by addition of 250 ng/mL LPS or buffer for 24 h. […] Panel (B) MonoMac-6 cells were pretreated with the indicated compounds or DMSO for 30 min, followed by addition of 250 ng/mL LPS or buffer for 24 h. Production of IL-6 in the supernatants was evaluated with ELISA. The data in each panel are presented as the mean ± S.D. of triplicate samples from one experiment that is representative of three independent experiments.

[4] = system: NF-κB/AP-1 transcriptional activity in THP-1Blue cells; test: LPS-induced NF-κB/AP-1 alkaline phosphatase reporter assay in THP-1Blue cells; format: cell-based; settings: Homo sapiens, 30 min pretreatment, 250 ng/mL LPS, 24 h; read-out: AP Production in THP–1Blue IC50
Description: Activation of AP-1/NF-κB was measured using an alkaline phosphatase reporter gene assay in THP1-Blue cells. Human monocytic THP-1Blue cells were stably transfected with a secreted embryonic alkaline phosphatase gene that was under the control of a promoter inducible by AP-1/NF-κB.
as §5, with “Figure 2 Effect of compounds 4d and 4e on NF-κB/AP-1 activity and IL-6 production. Panel (A)” for “Panel (A)”

[5] = Homo sapiens, MONO-MAC-6, 30 min pretreatment

T3 sequence (P53779 whole entry): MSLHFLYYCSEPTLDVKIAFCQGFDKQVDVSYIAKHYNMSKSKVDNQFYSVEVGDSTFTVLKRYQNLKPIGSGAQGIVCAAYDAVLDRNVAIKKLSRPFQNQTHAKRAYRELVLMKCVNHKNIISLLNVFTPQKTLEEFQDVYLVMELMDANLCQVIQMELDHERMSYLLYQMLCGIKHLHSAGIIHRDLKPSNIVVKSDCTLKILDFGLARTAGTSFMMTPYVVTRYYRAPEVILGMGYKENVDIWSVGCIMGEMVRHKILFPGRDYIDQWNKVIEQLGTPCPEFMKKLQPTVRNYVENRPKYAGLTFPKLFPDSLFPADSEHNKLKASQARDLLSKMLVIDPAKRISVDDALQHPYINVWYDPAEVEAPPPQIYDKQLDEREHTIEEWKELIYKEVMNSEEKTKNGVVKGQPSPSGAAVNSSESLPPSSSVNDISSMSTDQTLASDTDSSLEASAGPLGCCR
T1 sequence (P45984 whole entry): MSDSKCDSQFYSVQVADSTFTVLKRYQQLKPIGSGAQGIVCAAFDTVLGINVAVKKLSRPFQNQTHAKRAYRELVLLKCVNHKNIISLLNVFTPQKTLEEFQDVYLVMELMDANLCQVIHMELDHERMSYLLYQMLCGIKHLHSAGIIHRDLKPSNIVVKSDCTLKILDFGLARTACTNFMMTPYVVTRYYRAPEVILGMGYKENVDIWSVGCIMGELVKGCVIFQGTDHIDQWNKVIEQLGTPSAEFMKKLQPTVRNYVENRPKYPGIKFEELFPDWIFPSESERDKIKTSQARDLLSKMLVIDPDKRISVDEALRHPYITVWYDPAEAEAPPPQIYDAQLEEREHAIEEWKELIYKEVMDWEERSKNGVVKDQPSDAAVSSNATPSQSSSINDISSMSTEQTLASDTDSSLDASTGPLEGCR
T2 sequence (P45983 whole entry): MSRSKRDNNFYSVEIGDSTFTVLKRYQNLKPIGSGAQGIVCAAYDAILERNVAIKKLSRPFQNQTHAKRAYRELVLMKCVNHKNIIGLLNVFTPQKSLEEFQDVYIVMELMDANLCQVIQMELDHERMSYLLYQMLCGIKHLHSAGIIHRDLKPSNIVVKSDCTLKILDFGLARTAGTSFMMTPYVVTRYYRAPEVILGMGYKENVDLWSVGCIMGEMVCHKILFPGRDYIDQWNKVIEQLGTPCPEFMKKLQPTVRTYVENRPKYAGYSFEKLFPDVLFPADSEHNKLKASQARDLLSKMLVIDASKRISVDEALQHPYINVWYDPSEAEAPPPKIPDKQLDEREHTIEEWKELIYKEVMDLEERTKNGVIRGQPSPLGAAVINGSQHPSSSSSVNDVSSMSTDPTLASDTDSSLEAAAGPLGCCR

SMILES | Kd (JNK2) [µM] | Kd (JNK1) [µM] | IC50 at 24 h [1] [µM] | IC50 at 24 h [2] [µM] | selectivity index (JNK3 versus JNK1 and JNK2) (JNK3) | Kd (JNK3) [µM] | Selectivity Index JNK1/JNK3 (JNK3) | Selectivity Index JNK2/JNK3 (JNK3) | IC50 [3, 5] [µM] | melting point | IC50 [4] [µM] | IC50 ([3]; 30 min pretreatment) [µM]
O=c1c2ccccc2nc2n1-c1ccc([N+](=O)[O-])cc1C2=NO [Compound 4a, 8-Nitroindolo[2,1-b]quinazolin-6,12-dione Oxime] | > 30 | > 30 | 8.4 ± 0.9 | 4.1 ± 0.7 | > 7 | 0.86 ± 0.042 | >40 | >40 |  |  |  | 
O=c1c2ccccc2nc2n1-c1ccc(Br)cc1C2=NO [Compound 4b, 8-Bromoindolo[2,1-b]quinazolin-6,12-dione Oxime] | 8.5 ± 3.2 | 3.2 ± 0.21 | > 50 | > 50 | > 7 | 0.41 ± 0.07 | 7.8 | 20.7 | 15.5 ± 3.8 | > 225 °C (dec.) | 2.1 ± 0.7 | 
CCc1ccc2c(c1)C(=NO)c1nc3ccccc3c(=O)n1-2 [Compound 4c, 8-Ethylindolo[2,1-b]quinazolin-6,12-dione Oxime] | 1.3 ± 0.01 | 2.6 ± 0.4 | > 50 | 13.3 ± 1.3 |  | 0.49 ± 0.09 | 5.3 | 2.7 |  | > 225 °C (dec.) | 0.7 ± 0.2 | 
O=c1c2cc(Br)ccc2nc2n1-c1ccc([N+](=O)[O-])cc1C2=NO [Compound 4f, 2-Bromo-8-nitroindolo[2,1-b]quinazolin-6,12-dione Oxime] | > 30 | > 30 | 3.8 ± 0.9 | 2.7 ± 0.6 |  | > 30 |  |  |  | > 225 °C (dec.) |  | 
Cc1cccc2c1C(=NO)c1nc3ccccc3c(=O)n1-2 [Compound 4g, 7-Methylindolo[2,1-b]quinazolin-6,12-dione Oxime] | 14 ± 0.7 | 6.2 ± 1.8 | > 50 | > 50 |  | 0.4 ± 0.04 | 15.5 | 35 | 25.2 ± 5.3 | > 225 °C (dec.) | > 50 | 
O=c1c2cc(C(F)(F)F)ccc2nc2n1-c1ccccc1C2=NO [Compound 4i, 2-Trifluoromethylindolo[2,1-b]quinazolin-6,12-dione Oxime] | > 30 | > 30 | 5.6 ± 1.2 | 5.7 ± 1.2 |  | 11 ± 1.4 | >3 | >3 |  | > 225 °C (dec.) |  | 
O=c1c2cc(Br)ccc2nc2n1-c1ccccc1C2=NO [Compound 4j, 2-Bromoindolo[2,1-b]quinazolin-6,12-dione Oxime] | 7.4 ± 0.6 | 4.1 ± 0.6 | 12.5 ± 2.3 | 8.2 ± 1.6 |  | 1.9 ± 0.4 | 2.2 | 3.9 |  | > 225 °C (dec.) |  | 
O=c1c2ccc(Br)cc2nc2n1-c1ccccc1C2=NO [Compound 4k, 3-Bromoindolo[2,1-b]quinazolin-6,12-dione Oxime] | > 30 | > 30 | 24.1 ± 2.7 | > 50 |  | 5.7 ± 1.8 | >6 | >6 |  | > 225 °C (dec.) |  | 
O=c1c2ccc(F)cc2nc2n1-c1ccccc1C2=NO [Compound 4l, 3-Fluoroindolo[2,1-b]quinazolin-6,12-dione Oxime] | 0.72 ± 0.22 | 1.1 ± 0.1 | > 50 | > 50 |  | 0.43 ± 0.04 | 2.6 | 1.7 | < 1 | > 225 °C (dec.) | 5 ± 0.1 | 0.61 ± 0.04
O=c1c2ccc([N+](=O)[O-])cc2nc2n1-c1ccccc1C2=NO [Compound 4m, 3-Nitroindolo[2,1-b]quinazolin-6,12-dione Oxime] | > 30 | > 30 | > 50 | > 50 |  | 6.1 ± 0.4 | >5.6 | >5.6 | 1.9 ± 0.3 | > 225 °C (dec.) | 8.3 ± 0.2 | 
O=c1c2cc([N+](=O)[O-])ccc2nc2n1-c1ccccc1C2=NO [Compound 4n, 2-Nitroindolo[2,1-b]quinazolin-6,12-dione Oxime] | > 30 | > 30 | 39.3 ± 3.1 | > 50 |  | 8.7 ± 1 | >3.9 | >3.9 | 9.6 ± 1.3 | > 225 °C (dec.) |  | 
Cc1ccc2c(c1)C(=NO)c1nc3ccc(C)cc3c(=O)n1-2 [Compound 4o, 2,8-Dimethylindolo[2,1-b]quinazolin-6,12-dione Oxime] | 6.9 ± 0.2 | 3.7 ± 0.5 | > 50 | > 50 |  | 0.87 ± 0.16 | 4.3 | 7.9 | < 1 | > 300 °C (dec.) | 8.1 ± 0.1 | 0.8 ± 0.1
Cc1cccc2c1C(=NO)c1nc3cccc(C)c3c(=O)n1-2 [Compound 4p, 1,7-Dimethylindolo[2,1-b]quinazolin-6,12-dione Oxime] | > 30 | > 30 | > 50 | > 50 |  | > 30 |  |  | > 50 | 190 to 191 °C | > 50 | 
COc1ccc2c(c1)-n1c(nc3cc(OC)ccc3c1=O)C2=NO [Compound 4r, 3,9-Dimethoxylindolo[2,1-b]quinazolin-6,12-dione Oxime] | 5.8 ± 1.6 | 4.6 ± 0.6 | 8.3 ± 1.3 | 4.3 ± 0.9 |  | 3.2 ± 1.1 | 1.4 | 1.8 |  | 292 to 293 °C |  | 
O=c1c2ccc(Br)cc2nc2n1-c1cc(Br)ccc1C2=NO [Compound 4s, 3,9-Dibromoindolo[2,1-b]quinazolin-6,12-dione Oxime] | > 30 | > 30 | 49.1 ± 8.3 | 16.9 ± 3.4 |  | > 30 |  |  |  | > 300 °C (dec.) |  | 
O=c1c2cc(Br)ccc2nc2n1-c1ccc(Br)cc1C2=NO [Compound 4t, 2,8-Dibromoindolo[2,1-b]quinazolin-6,12-dione Oxime] | > 30 | > 30 | 6.6 ± 0.3 | 9.2 ± 2.1 |  | > 30 |  |  |  | 250 to 251 °C |  | 
O=C(ON=C1c2ccccc2-n2c1nc1ccccc1c2=O)c1ccc2c(c1)OCO2 [Compound 5e, 6-(((Benzo[d][1,3]dioxol-5-carbonyl)oxy)imino)indolo[2,1-b]quinazolin-12(6H)-one] | 1.5 ± 0.6 | 0.47 ± 0.08 | > 50 | 27.3 ± 1.4 |  | 0.27 ± 0.01 | 1.7 |  |  | 206 to 208 °C | 3.5 ± 1.2 | 
O=c1c2ccccc2nc2n1-c1ccccc1C2=NO [TRYP-Ox, tryptanthrin-6-oxime, reference compound] |  |  | > 50 | > 50 |  |  |  |  |  |  | 3.8 ± 1.1 | 
